# Assay results as given in US7208572B2, “Leptin-related peptides” (Albany Medical College, priority 1998, dated 2007).
# What was measured:
# [1] = Epitope mapping: body weight and food intake in female C57BL/6J ob/ob mice, 7 daily ip injections; assay type: in vivo, mouse; conditions: 1 mg/day ip, 7 days
# Procedure: Animal procedures. Feeding and weighing schedules, as well as peptide administration protocols, are as described in EXAMPLE 8, supra.
# Statistical analysis. Changes in body weight and differences in food intake between peptide-treated and vehicle-injected control mice were analyzed by analysis of variance (ANOVA) and considered significant when P<0.05.
# Female ob/ob mice (n=6 per group) were given a single ip injection of 0.2 ml of vehicle (PBS, pH 7.2) or leptin-related synthetic peptide amide in 0.2 ml PBS for 7 consecutive days. Daily changes in body weight compared to pretreatment weights in both vehicle-injected control and peptide-treated mice are shown in FIG. 4. […] There was no evidence of weight loss in response to peptide treatment.
# [2] = 28-day ip study of body weight and food intake in female C57BL/6J ob/ob mice; assay type: in vivo, mouse; conditions: 1 mg per day ip, 28 days
# Description: In order to examine this possibility, six overlapping peptide amides, which corresponded to amino acid residues 106 to 167 of mouse leptin, were synthesized and their effects on body weight and food intake in female C57BL/6J ob/ob mice were subsequently assessed.
# [3] = target: T1, OB-Rb (Mus musculus, UniProt P48356); assay: SEAP reporter gene signal transduction assay in GT1–7 cells cotransfected with HRRE-SEAP and OB-Rb; assay type: cell-based; conditions: peptide 1 to 250 uM, 24 h
# T1 construct: full-length leptin receptor (OB-Rb), the receptor isoform predominantly expressed in the hypothalamus; expressed in transfected cells; host or cells: GT1-7
# T1 sequence (P48356 22-1162): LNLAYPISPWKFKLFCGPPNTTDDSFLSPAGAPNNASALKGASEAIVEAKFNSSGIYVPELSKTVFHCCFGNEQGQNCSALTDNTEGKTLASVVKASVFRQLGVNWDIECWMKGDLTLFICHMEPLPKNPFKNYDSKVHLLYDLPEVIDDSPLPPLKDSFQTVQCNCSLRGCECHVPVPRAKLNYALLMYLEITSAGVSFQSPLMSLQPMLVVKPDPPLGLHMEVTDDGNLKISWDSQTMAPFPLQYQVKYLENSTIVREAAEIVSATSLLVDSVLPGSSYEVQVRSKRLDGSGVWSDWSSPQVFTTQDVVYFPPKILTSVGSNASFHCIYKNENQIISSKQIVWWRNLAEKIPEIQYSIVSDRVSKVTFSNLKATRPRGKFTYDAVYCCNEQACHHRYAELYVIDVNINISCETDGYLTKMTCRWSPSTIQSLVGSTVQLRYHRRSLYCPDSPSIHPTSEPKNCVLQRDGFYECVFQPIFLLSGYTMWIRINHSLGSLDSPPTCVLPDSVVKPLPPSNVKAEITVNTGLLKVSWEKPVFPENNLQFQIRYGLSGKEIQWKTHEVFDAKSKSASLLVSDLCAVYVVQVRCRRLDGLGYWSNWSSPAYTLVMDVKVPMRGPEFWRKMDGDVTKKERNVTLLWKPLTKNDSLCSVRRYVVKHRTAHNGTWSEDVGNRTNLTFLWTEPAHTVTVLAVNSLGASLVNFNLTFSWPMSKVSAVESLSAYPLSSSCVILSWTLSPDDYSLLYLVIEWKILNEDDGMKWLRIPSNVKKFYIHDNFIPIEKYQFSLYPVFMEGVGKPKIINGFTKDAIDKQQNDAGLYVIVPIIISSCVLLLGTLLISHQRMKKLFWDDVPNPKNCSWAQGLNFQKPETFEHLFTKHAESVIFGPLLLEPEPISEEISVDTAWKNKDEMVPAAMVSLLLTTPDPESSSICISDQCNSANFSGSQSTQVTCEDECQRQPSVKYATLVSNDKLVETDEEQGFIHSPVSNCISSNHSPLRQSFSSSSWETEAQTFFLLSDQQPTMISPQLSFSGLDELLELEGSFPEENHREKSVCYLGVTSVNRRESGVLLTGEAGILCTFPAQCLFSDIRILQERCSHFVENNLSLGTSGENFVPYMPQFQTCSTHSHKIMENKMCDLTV
# Description: Initial experiments to determine the mechanism of action of LEP(116–130) utilized two highly sensitive in vitro bioassays routinely used to assess leptin binding and receptor activation (see e.g., White, et al., 1997. Proc. Natl. Acad. Sci. U.S.A. 94: 10657–10662). An alkaline phosphatase (“AP”)-leptin (“OB”) fusion protein (“AP-OB”) was used to measure inhibition of leptin binding in the absence or presence of recombinant mouse leptin (positive control) or peptide, by COS-7 cells transfected with the long (signaling) form of the mouse OB receptor (“OB-RL”). Signal transduction assays were done in GT1–7 cells cotransfected with AP reporter and OB-RL constructs. Secreted alkaline phosphatase (“SEAP”) activity in response to stimulation with mouse leptin or peptide was measured by chemiluminescence.
# Two days after transfection, the cells were stimulated with mouse leptin or leptin-related synthetic peptides for 24 hours. Growth media were harvested and SEAP activity was determined by chemiluminescence as described for AP-OB binding studies.
# COS-7 and GT1–7 cells were cultured in DMEM supplemented with 10% fetal bovine serum, and transfected by the lipofectamine method. […] Supernatants were collected and SEAP reporter activities were measured by chemiluminescence using the GreatEscApe alkaline phosphatase detection kit as described by the manufacturer (CLONTECH). […]
sequence,measurement,setting,value
A L S R L Q G S L Q D I L Q Q (ALSRLQGSLQDILQQ) [LEP(146–160)],Cumulative food intake,[1],40.5 ± 1.0 gm/mouse
same,Percent heavier (+) or lighter (−) than initial weight,[1],+28.0%
same,Weight gain (+) or loss (−),[1],+6.8 g
same,Weight gain and food intake vs vehicle,[2],continued to consume food and gain weight at a rate comparable to vehicle-injected control mice
same,Stimulation of SEAP reporter activity,[3],incapable of inducing an increase in reporter gene activity
